Earlier results, collected in patent US8470984B2, “Process for the preparation of morpholinyl anthracycline derivatives” (Nerviano Medical Sciences S.R.L., priority 2010, dated 2013).

Columns and labels:
[1] = system: tumor models

## COc1cccc2c1C(=O)c1c(O)c3c(c(O)c1C2=O)C[C@@](O)(C(=O)CO)C[C@@H]3O[C@H]1C[C@H]2[C@H](O[C@@H]3[C@@H](OC)OCCN32)[C@H](C)O1 [compound 1, 3′-deamino-3″-4′-anhydro-[2″(S)-methoxy-3″(R)-hydroxy-4″-morpholinyl]doxorubicin]
[1]
  efficacy in in vivo tumor models: effective in in vivo tumor models
other
  cytotoxicity in vitro relative to nemorubicin and doxorubicin: more cytotoxic than nemorubicin and doxorubicin
